From patent publication US5840728A, “Conformationally locked nucleoside analogs as antiherpetic agents” (priority 1997, dated 1998)
In brackets after ≈: the same amount, converted by molar mass. Like-named read-outs stand apart in the source and are kept apart here.

Key:
[1] = Cytotoxicity in host cells / stationary cells (HFF); assay type: cell-based, human; conditions: human, hff cells
Description: ^d CC50 = cytotoxic concentration in μg/mL that produces 50%

[2] = test system: HCMV (human cytomegalovirus); assay: microbe, parasite or virus in culture; assay type: cell-based; conditions: for EC50: read-out: EC50
[3] = test system: HCMV (human cytomegalovirus); assay: microbe, parasite or virus in culture; assay type: cell-based
Description: | ^f plaque reduction assay.

[4] = Cytotoxicity in EBV host cells (Daudi); assay type: cell-based; conditions: human, Table 3, Daudi
EBV (Epstein-Barr virus) = assay: microbe, parasite or virus in culture; assay type: cell-based; conditions: for EC50: human gammaherpesvirus 4, read-out: EC50
Description: (§1) Compounds 25 and 26 are (S)-methanocarba-T and (±)-(carba-T), respectively. (±)-carba-T was kindly provided by Dr. Y. Fulmer Shealy, Southern Research Institute, Birmingham, Ala. [drawing 5]

[5] = test system: HSV-2 (herpes simplex type 2); assay: microbe, parasite or virus in culture; conditions: for EC50: HSV-2
Description: as §1

[6] = test system: HSV-1 (herpes simplex type 1); assay: microbe, parasite or virus in culture; conditions: for EC50: HSV-1
Description: as §1

[7] = test system: S-adenosylhomocysteine hydrolase (AdoHcy-ase); assay: Inhibition of S-adenosylhomocysteine hydrolase; assay type: biochemical
[8] = Cytotoxicity in growing (rapidly dividing) HFF; assay type: cell-based, human; conditions: human, growing hff cells; Table 3; Growing HFF; read-out: CC50
Growing HFF = assay: Cytotoxicity in growing (rapidly dividing) HFF; assay type: cell-based, human; conditions: in words; rapidly proliferating vs stationary cells
[9] = Adenosine deaminase studies (deamination by ADA); assay type: biochemical; conditions: adenosine deaminase; 50 μM compound; 1.0 unit ADA; 37° C., pH 7.1; read-out: t1/2 of deamination
Method: (§2) At timed intervals, 50 µl aliquots were quenched with 450 μl water containing the ADA inhibitor deoxycoformycin (4 μM). Hydrolysis kinetics of 4 were followed by high performance liquid chromatography (HPLC) with on-the-fly UV spectral characterization of all chromatographic components. […] The hydrolysis rate constant (k/ADA) and t^1/2 of decay or formation were obtained using GraphPAD Inpiot curve fitting program.

[10] = test system: adenosine deaminase (ADA); assay: Adenosine deaminase studies (deamination by ADA); assay type: biochemical
Method: as §2

[11] = in words, listed as (N)-methanocarba-A

Nc1ncnc2c1ncn2[C@H]1C[C@H](O)[C@]2(CO)C[C@H]12 [Compound 4, (1 R,2S,4S,5S)-1-Hydroxymethyl-2-hydroxM-4-(6-amino-9-purinyl)bicyclo[3.1.0]hexane]
CC50 ([1]; Table 3, HFF): > 100 µg/mL
CC50 ([1]; Table 5, host cell not given): > 100 µg/mL
SI (CC50/EC50) [2]: > 32.2
potency against HCMV relative to gancyclovir ([2]; HCMV): only ten fold less potent than gancyclovir
antiviral selectivity ([2]; HCMV, compared with gancyclovir, in words): superibor to that of gancyclovir
EC50 ([2]; Human betaherpesvirus 5, Table 3, HCMV, HFF): 3.1 µg/mL (≈ 11.9 µM)
EC50 ([2]; Human betaherpesvirus 5, Table 5, HCMV): 3.1 µg/mL (≈ 11.9 µM)
EC50 ([2]; Human betaherpesvirus 5, text, HCMV): 3.1 µg/mL (≈ 11.9 µM)
activity against HCMV [2, 11]: exhibited antiviral effects against Human CMV, EBV and HSV-2
EC50 ([3]; Human betaherpesvirus 5, Table 5, HCMV, plaque reduction assay, read-out: EC50): 5.6 µg/mL (≈ 21.4 µM)
SI (CC50/EC50) ([3]; human foreskin fibroblasts): > 17.9
CC50 [4]: > 100 µg/mL
SI (CC50/EC50) (EBV (Epstein-Barr virus)): > 66.7
anti-EBV activity relative to acyclovir (EBV (Epstein-Barr virus); EBV): only fifteen fold weaker than acyclovir
EC50 (EBV (Epstein-Barr virus); EBV): 1.5 µg/mL (≈ 5.74 µM)
EC50 (EBV (Epstein-Barr virus); Table 3, EBV, Daudi, viral capsid antigen): 1.5 µg/mL (≈ 5.74 µM)
activity against EBV (EBV (Epstein-Barr virus); [11]): exhibited antiviral effects against Human CMV, EBV and HSV-2
SI (CC50/EC50) [5]: > 7.2
EC50 ([5]; Human alphaherpesvirus 2, Table 3, HFF): 13.9 µg/mL (≈ 53.2 µM)
EC50 ([5]; Human alphaherpesvirus 2, Table 5): 13.9 µg/mL (≈ 53.2 µM)
activity against HSV-2 [5, 11]: exhibited antiviral effects against Human CMV, EBV and HSV-2
SI (CC50/EC50) [6]: > 1.4
EC50 ([6]; Human alphaherpesvirus 1, Table 3, HFF): 72 µg/mL (≈ 276 µM)
EC50 ([6]; Human alphaherpesvirus 1, Table 5): 72 µg/mL (≈ 276 µM)
activity against HSV-1 ([6]; in words): weak level of activity
inhibition ([7]; at 100 μM): 20%
inhibition ([7]; at 100 FM concentration (so in the source)): 20%
activity against AdoHcy-ase ([7]; in words): very low
CC50 [8]: > 100 µg/mL
cytotoxicity to rapidly dividing cells (Growing HFF): equally non-toxic to rapidly proliferating cells and stationary cells
half-life at 50 µM [9]: 3.2 min
time to complete deamination ([10]; 50 μM compound, 1.0 unit ADA, 37° C., pH 7.1): 30 min
deamination by ADA ([10]; in words): complete deamination
